Among the test systems are HCC-2998 colon; SNB-75 CNS; M14 melanoma; MDA-MB-231 breast; NCI/ADR-RES ovarian; NCI-H460 lung; SW-620 colon; HOP-62 NSCLC; HCT-116 colon; SK-OV-3 ovarian.
What all share (assay): growth of human tumour cells (NCI), 48 h

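Dose response: 5 concentrations. Exposure: 48 h. Format: 96-well plates. Endpoint: linear interpolation; highest concentration if not reached. Here, GI50 denotes the concentration required for 50% inhibition of growth. TGI: total growth inhibition.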 Some results are limits rather than exact numbers.

7 compounds from PubChem BioAssay (NCI) can be followed below.

Take `Cc1cccc(Oc2ccc(Nc3ncnc4ccc(NC(=O)CN5CCN(C)CC5)cc34)cc2Cl)c1`: the GI50 was 1.58 µM with HCC-2998 colon; 1.44 µM with SNB-75 CNS; 1.72 µM in the experiment on M14 melanoma; 1.66 µM in the experiment on MDA-MB-231 breast; 1.73 µM with NCI/ADR-RES ovarian; 1.75 µM in the experiment on NCI-H460 lung. For the same compound, the GI50 with SW-620 colon is 1.69 µM. Besides, the TGI in the experiment with HCC-2998 colon came to 3.04 µM; in the experiment with SNB-75 CNS, 2.81 µM; with M14 melanoma it was 3.38 µM; in the experiment on MDA-MB-231 breast, 3.17 µM; with NCI/ADR-RES ovarian it was 4.24 µM; in the experiment with NCI-H460 lung, 3.28 µM. In the experiment on SW-620 colon, this compound registered a TGI of 3.27 µM.

Regarding `O=C1NC(=O)[C@H]2C3C=CC([C@@H]12)[C@@H]1C(=O)NC(=O)[C@H]31`, the TGI in the experiment with HCC-2998 colon, in the experiment with M14 melanoma, with MDA-MB-231 breast, in the experiment on NCI/ADR-RES ovarian, with NCI-H460 lung and in the experiment with HOP-62 NSCLC was > 100 µM throughout. The TGI in the experiment on HCT-116 colon and in the experiment with SW-620 colon was > 100 µM in each case.

`COc1cc(/C=C2\C[C@H]3[C@@H]4CC=C5C[C@@H](OC(C)=O)CC[C@]5(C)[C@H]4CC[C@]3(C)[C@H]2OC(C)=O)ccc1OCCCn1ccnc1`: the GI50 with HCC-2998 colon was 9.47 µM; with M14 melanoma, 8.85 µM; in the experiment with MDA-MB-231 breast it was 8.2 µM; in the experiment with NCI/ADR-RES ovarian, 11.3 µM; in the experiment with NCI-H460 lung it was 9.2 µM; with HOP-62 NSCLC it was 11.3 µM. Also, the GI50 in the experiment on HCT-116 colon was 7.78 µM; with SW-620 colon it was 10.3 µM. Besides, the TGI with HCC-2998 colon came to 17.7 µM; with M14 melanoma, 16.6 µM; in the experiment with MDA-MB-231 breast, 16.6 µM; with NCI/ADR-RES ovarian it was 28.8 µM; in the experiment with NCI-H460 lung, 22.9 µM; with HOP-62 NSCLC it was 19.5 µM. Further, the TGI was 17.2 µM with HCT-116 colon and > 30.1 µM with SW-620 colon.

Consider `C/C(=C\c1ccn(-c2ccc(N)cc2C(F)(F)F)n1)[C@@H]1C[C@@H]2O[C@]2(C)CCC[C@H](C)[C@H](O)[C@@H](C)C(=O)C(C)(C)[C@@H](O)CC(=O)O1`, for which the GI50 was 0.42 µM with SK-OV-3 ovarian; 0.306 µM in the experiment on HCC-2998 colon; 0.242 µM in the experiment with M14 melanoma; 1.51 µM in the experiment with MDA-MB-231 breast; 4.38 µM with NCI/ADR-RES ovarian; 0.302 µM in the experiment on NCI-H460 lung. Further, the GI50 in the experiment with HOP-62 NSCLC is 0.49 µM; in the experiment with HCT-116 colon it was 0.201 µM; in the experiment on SW-620 colon it was 0.301 µM. For the same compound, the TGI with SK-OV-3 ovarian is > 11.1 µM; in the experiment on HCC-2998 colon, 6.23 µM; in the experiment with M14 melanoma it was 1.56 µM; with MDA-MB-231 breast it was > 11.1 µM; in the experiment on NCI/ADR-RES ovarian it was > 11.1 µM; with NCI-H460 lung, > 11.1 µM. Also, the TGI in the experiment with HOP-62 NSCLC was 9.98 µM; in the experiment on HCT-116 colon, > 11.1 µM; in the experiment on SW-620 colon, > 11.1 µM.

With `CCCN1C(=O)/C(=C/c2ccc(O)cc2)SC1=Nc1ccccc1`, the GI50 with SK-OV-3 ovarian is 18 µM; with HCC-2998 colon it was 22.9 µM; in the experiment on M14 melanoma, 48.7 µM; in the experiment with MDA-MB-231 breast, 16 µM; in the experiment with NCI/ADR-RES ovarian it was 20.4 µM; in the experiment with NCI-H460 lung, 15.2 µM. The GI50 with HOP-62 NSCLC is 21.2 µM; with HCT-116 colon, 17.5 µM; with SW-620 colon it was 37.8 µM. Further, the TGI in the experiment on SK-OV-3 ovarian was 40.8 µM; in the experiment on HCC-2998 colon it was 47.4 µM; in the experiment with M14 melanoma, > 100 µM; with MDA-MB-231 breast, 36.6 µM; in the experiment with NCI/ADR-RES ovarian, 36.4 µM; in the experiment on NCI-H460 lung it was 29.9 µM. The TGI with HOP-62 NSCLC is 37.9 µM; in the experiment on HCT-116 colon, 31.3 µM; with SW-620 colon, > 100 µM.

As to `N#C/C(=C\c1ccc(Cl)cc1)n1nnc2cc(F)c(F)cc21`, the GI50 was 1.74 µM with HCC-2998 colon; 1.51 µM in the experiment on SNB-75 CNS; 1.9 µM in the experiment with M14 melanoma; 1.85 µM in the experiment with MDA-MB-231 breast; 2.36 µM in the experiment on NCI/ADR-RES ovarian; 2.17 µM in the experiment on NCI-H460 lung. Also, the GI50 is 2.29 µM with HOP-62 NSCLC, 1.77 µM in the experiment with HCT-116 colon and 1.72 µM in the experiment with SW-620 colon. In addition, the TGI was 3.29 µM in the experiment with HCC-2998 colon; 3.01 µM in the experiment on SNB-75 CNS; 4.39 µM in the experiment with M14 melanoma; 4.47 µM in the experiment with MDA-MB-231 breast; 7.7 µM with NCI/ADR-RES ovarian; 4.86 µM in the experiment with NCI-H460 lung. Also, the TGI in the experiment on HOP-62 NSCLC was found to be 6.32 µM; in the experiment with HCT-116 colon, 3.45 µM; in the experiment with SW-620 colon it was 3.46 µM.

In the case of `N#C/C(=C\c1ccc(Br)cc1)n1nnc2cc(F)c(F)cc21`, the GI50 is 2.02 µM in the experiment with HCC-2998 colon; 2.23 µM with MDA-MB-231 breast; 2.3 µM in the experiment with NCI/ADR-RES ovarian; 1.96 µM in the experiment on NCI-H460 lung; 1.93 µM in the experiment with HOP-62 NSCLC; 1.56 µM in the experiment on HCT-116 colon. Moreover, the GI50 in the experiment on SW-620 colon was 1.55 µM. In addition, the TGI was 3.67 µM in the experiment with HCC-2998 colon; 5.92 µM in the experiment on MDA-MB-231 breast; > 100 µM in the experiment on NCI/ADR-RES ovarian; 3.98 µM in the experiment on NCI-H460 lung; 4.27 µM in the experiment with HOP-62 NSCLC; 3.44 µM in the experiment on HCT-116 colon. For the same compound, the TGI in the experiment on SW-620 colon was 3.32 µM.
